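Step 1: Grow cells in 96-well plates. Step 2: Expose to compound for 48 hours at 5 concentrations. Step 3: Interpolate endpoints linearly; if unreached, use highest concentration. TGI marks complete inhibition of growth.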
How the values were obtained:
Experiment in all cases: DTP human tumour cell line panel, 48 h
SNB-19 CNS = tested on: SNB-19 CNS
SR leukemia = tested on: SR leukemia
RXF 393 renal = tested on: RXF 393 renal
OVCAR-5 ovarian = tested on: OVCAR-5 ovarian
T-47D breast = tested on: T-47D breast
UACC-257 melanoma = tested on: UACC-257 melanoma
MALME-3M melanoma = tested on: MALME-3M melanoma
SK-MEL-2 melanoma = tested on: SK-MEL-2 melanoma
A549 NSCLC = tested on: A549 NSCLC
HOP-92 NSCLC = tested on: HOP-92 NSCLC
SNB-75 CNS = tested on: SNB-75 CNS
ACHN renal = tested on: ACHN renal
MDA-N = tested on: MDA-N
SK-MEL-5 melanoma = tested on: SK-MEL-5 melanoma
SF-268 CNS = tested on: SF-268 CNS
MDA-MB-231 breast = tested on: MDA-MB-231 breast
COLO 205 colon = tested on: COLO 205 colon
K-562 leukemia = tested on: K-562 leukemia
KM12 colon = tested on: KM12 colon
SK-OV-3 ovarian = tested on: SK-OV-3 ovarian
SN12C renal = tested on: SN12C renal
HCC-2998 colon = tested on: HCC-2998 colon
HCT-116 colon = tested on: HCT-116 colon
HT29 colon = tested on: HT29 colon
HOP-62 NSCLC = tested on: HOP-62 NSCLC
OVCAR-8 ovarian = tested on: OVCAR-8 ovarian
786-0 renal = tested on: 786-0 renal
MCF7 breast = tested on: MCF7 breast
HS 578T breast = tested on: HS 578T breast
SF-295 CNS = tested on: SF-295 CNS
UO-31 renal = tested on: UO-31 renal
IGROV1 ovarian = tested on: IGROV1 ovarian
LOX IMVI melanoma = tested on: LOX IMVI melanoma
M14 melanoma = tested on: M14 melanoma
TK-10 renal = tested on: TK-10 renal
SF-539 CNS = tested on: SF-539 CNS
SK-MEL-28 melanoma = tested on: SK-MEL-28 melanoma
CCRF-CEM leukemia = tested on: CCRF-CEM leukemia
U251 CNS = tested on: U251 CNS
UACC-62 melanoma = tested on: UACC-62 melanoma
EKVX NSCLC = tested on: EKVX NSCLC
PC-3 prostate = tested on: PC-3 prostate
NCI/ADR-RES ovarian = tested on: NCI/ADR-RES ovarian
HCT-15 colon = tested on: HCT-15 colon
BT-549 breast = tested on: BT-549 breast
NCI-H460 lung = tested on: NCI-H460 lung
SW-620 colon = tested on: SW-620 colon
A498 renal = tested on: A498 renal
NCI-H23 lung = tested on: NCI-H23 lung
DU-145 prostate = tested on: DU-145 prostate
RPMI-8226 leukemia = tested on: RPMI-8226 leukemia
MDA-MB-435 = tested on: MDA-MB-435
HL-60(TB) leukemia = tested on: HL-60(TB) leukemia
NCI-H522 lung = tested on: NCI-H522 lung
MOLT-4 leukemia = tested on: MOLT-4 leukemia
OVCAR-3 ovarian = tested on: OVCAR-3 ovarian
CAKI-1 renal = tested on: CAKI-1 renal
OVCAR-4 ovarian = tested on: OVCAR-4 ovarian
NCI-H226 lung = tested on: NCI-H226 lung

Compound: CC12CCC(C1)C(C)(C)C2OC(=O)c1ccccc1N (configuration not stated)
- TGI (SNB-19 CNS): 31.9 µM
- TGI (SR leukemia): 25.8 µM
- TGI (RXF 393 renal): 25.7 µM
- TGI (OVCAR-5 ovarian): 35 µM
- TGI (T-47D breast): 32.1 µM
- TGI (UACC-257 melanoma): 29 µM
- TGI (MALME-3M melanoma): 29.8 µM
- TGI (SK-MEL-2 melanoma): 29.5 µM
- TGI (A549 NSCLC): 29.2 µM
- TGI (HOP-92 NSCLC): 24.4 µM
- TGI (SNB-75 CNS): 35.1 µM
- TGI (ACHN renal): 33 µM
- TGI (MDA-N): 29.7 µM
- TGI (SK-MEL-5 melanoma): 31 µM
- TGI (SF-268 CNS): 31.6 µM
- TGI (MDA-MB-231 breast): 30.2 µM
- TGI (COLO 205 colon): 29 µM
- TGI (K-562 leukemia): 32.1 µM
- TGI (KM12 colon): 38 µM
- TGI (SK-OV-3 ovarian): 30.3 µM
- TGI (SN12C renal): 31.7 µM
- TGI (HCC-2998 colon): 27.9 µM
- TGI (HCT-116 colon): 26.6 µM
- TGI (HT29 colon): 29.1 µM
- TGI (HOP-62 NSCLC): 32.4 µM
- TGI (OVCAR-8 ovarian): 38.5 µM
- TGI (786-0 renal): 33.5 µM
- TGI (MCF7 breast): 31.8 µM
- TGI (HS 578T breast): 31.5 µM
- TGI (SF-295 CNS): 35.6 µM
- TGI (UO-31 renal): 30.8 µM
- TGI (IGROV1 ovarian): 40.5 µM
- TGI (LOX IMVI melanoma): 33.8 µM
- TGI (M14 melanoma): 31.6 µM
- TGI (TK-10 renal): 32.8 µM
- TGI (SF-539 CNS): 33.7 µM
- TGI (SK-MEL-28 melanoma): 31.9 µM
- TGI (CCRF-CEM leukemia): 3.96 µM
- TGI (U251 CNS): 32.6 µM
- TGI (UACC-62 melanoma): 29.2 µM
- TGI (EKVX NSCLC): 30.2 µM
- TGI (PC-3 prostate): 27.3 µM
- TGI (NCI/ADR-RES ovarian): 31.7 µM
- TGI (HCT-15 colon): 33.7 µM
- TGI (BT-549 breast): 34.3 µM
- TGI (NCI-H460 lung): 30.7 µM
- TGI (SW-620 colon): 29.6 µM
- TGI (A498 renal): 28.6 µM
- TGI (NCI-H23 lung): 31.2 µM
- TGI (DU-145 prostate): 33.3 µM
- TGI (RPMI-8226 leukemia): 16.9 µM
- TGI (MDA-MB-435): 31.2 µM
- TGI (HL-60(TB) leukemia): 28.6 µM
- TGI (NCI-H522 lung): 22.7 µM
- TGI (MOLT-4 leukemia): 25.1 µM
- TGI (OVCAR-3 ovarian): 30.8 µM
- TGI (CAKI-1 renal): 29.9 µM

Compound: O=C(CSc1nc2ccc(I)cc2c(=O)n1Cc1ccccc1)Nc1ccccc1
- TGI (SNB-19 CNS): 62.7 µM
- TGI (SR leukemia): 33.3 µM
- TGI (RXF 393 renal): 34.1 µM
- TGI (OVCAR-5 ovarian): > 100 µM
- TGI (T-47D breast): > 100 µM
- TGI (MALME-3M melanoma): 43.8 µM
- TGI (SK-MEL-2 melanoma): 43.3 µM
- TGI (A549 NSCLC): > 100 µM
- TGI (HOP-92 NSCLC): 75 µM
- TGI (SNB-75 CNS): 12.2 µM
- TGI (ACHN renal): > 100 µM
- TGI (MDA-N): > 100 µM
- TGI (SK-MEL-5 melanoma): > 100 µM
- TGI (SF-268 CNS): 29.2 µM
- TGI (MDA-MB-231 breast): > 100 µM
- TGI (COLO 205 colon): > 100 µM
- TGI (K-562 leukemia): > 100 µM
- TGI (KM12 colon): > 100 µM
- TGI (SK-OV-3 ovarian): 46.4 µM
- TGI (SN12C renal): > 100 µM
- TGI (HCT-116 colon): > 100 µM
- TGI (HT29 colon): > 100 µM
- TGI (HOP-62 NSCLC): 26.7 µM
- TGI (OVCAR-8 ovarian): 30 µM
- TGI (786-0 renal): 23.9 µM
- TGI (MCF7 breast): > 100 µM
- TGI (HS 578T breast): 17 µM
- TGI (SF-295 CNS): 66.7 µM
- TGI (UO-31 renal): 1.55 µM
- TGI (IGROV1 ovarian): > 100 µM
- TGI (LOX IMVI melanoma): > 100 µM
- TGI (M14 melanoma): > 100 µM
- TGI (SF-539 CNS): 10.6 µM
- TGI (SK-MEL-28 melanoma): > 100 µM
- TGI (CCRF-CEM leukemia): > 100 µM
- TGI (U251 CNS): 48.8 µM
- TGI (UACC-62 melanoma): > 100 µM
- TGI (EKVX NSCLC): 11.6 µM
- TGI (PC-3 prostate): 31.9 µM
- TGI (NCI/ADR-RES ovarian): 93.2 µM
- TGI (HCT-15 colon): > 100 µM
- TGI (BT-549 breast): 54.6 µM
- TGI (OVCAR-4 ovarian): > 100 µM
- TGI (SW-620 colon): > 100 µM
- TGI (A498 renal): 46.4 µM
- TGI (NCI-H23 lung): > 100 µM
- TGI (DU-145 prostate): > 100 µM
- TGI (RPMI-8226 leukemia): > 100 µM
- TGI (MDA-MB-435): > 100 µM
- TGI (HL-60(TB) leukemia): > 100 µM
- TGI (NCI-H522 lung): 90.6 µM
- TGI (MOLT-4 leukemia): > 100 µM
- TGI (OVCAR-3 ovarian): 40.4 µM
- TGI (NCI-H226 lung): 44.5 µM
- TGI (CAKI-1 renal): > 100 µM

— PubChem BioAssay (NCI)
